These results are taken from patent publication US11028084B2, “Selective inhibitors of gentotoxic steress-induced IKK/NF-κB pathways” (Max-Delbrück-Centrum für Molekulare Medizin in der …, priority 2016, dated 2021).

In experiment [1] the target is T1, PARP1 (Mus musculus, UniProt P11103).
T1 construct: endogenous in cells; host or cells: MEF (mouse embryonic fibroblasts)
As to the kind of experiment: PARP1 enzymatic activity, PAR chain formation after γ-irradiation, MEF cells. The format is cell-based. An excerpt: FIG. 10: (A) MEF cells were pre-treated with the indicated substances, irradiated and cell lysates were used for poly(ADP)-ribose probing using a specific antibody. (B) Experiment performed as described for (A), but using U2OS cells.

The subject of experiment [2] is genotoxic stress-activated NF-κB signaling. As to the kind of experiment: TAK1 and p65 S536 phosphorylation after γ-irradiation, WB, HepG2 cells. The following applies: HepG2, 90 min after irradiation, PARP inhibitors. The format is cell-based, human. The method, then:
FIG. 6: (A) U2OS cells were pre-treated with DMSO or MW01 and irradiated. Stimulation of cell with IL-1β served as a positive control for IκBα and p65 phosphorylation. Cells were lysed at indicated time points and used for WB analyses. (B,C) Similar experimental setup as in (A). (D) Experiment as in (A-C), but with other time points analysed and performed with HepG2 cells. PARP1 and LDH serve as loading controls.
(§1) FIG. 9: HepG2 cells were pre-incubated with DMSO, MW01 (5 μM) or the ATM inhibitor Ku55933 (10 μM) and irradiated. After 60 min cells were harvested and processed. Immunochemical staining of Western blotting membranes was done using indicated antibodies.
(§2) FIG. 14: (A) U2OS cells were pre-treated with different concentrations of olaparib prior to co-treatment with etoposide. Whole cell lysis was performed after 90 min and cleared lysates were used for WB with indicated antibodies. (B) U2OS cells were pre-treated with DMSO, olaparib or the ATM inhibitor Ku55933 and co-treated with etoposide. Cells were harvested after 45 min and subjected to SDS-PAGE/WB. Membranes were stained with the indicated antibodies. The experiment of (B) was performed simultaneously to the experiments of (A) and (E) to control functionality of olaparib in inhibiting PAR chain formation. (C) Densitometrical analyses of (A) and two further independent experiments done as shown in (A). (D) U2OS cells were pre-treated with the substances as indicated prior to irradiation. After 90 min mRNA was isolated, transcribed into cDNA and was used for expression analyses of the indicated genes using quantitative real-time PCR (qRT-PCR). (E) HepG2 cells were pre-treated with the PARP inhibitors olaparib, 3-AB and EB-47 prior to γ-irradiation. Cells were harvested after 15 and 90 min and subjected to SDS-PAGE/WB. Membranes were stained with the indicated antibodies. Error bars equal SEM.

Experiment [3] has as its target T2, PARP1 (Homo sapiens, UniProt P09874). The note with it: HepG2, after γ-irradiation (Stilmann et al.; 2009); cited from earlier work.
Experiment [4] deals with T1, PARP1. The note with it: MEF, after etoposide administration (Stilmann et al.; 2009); cited from earlier work.
The test system of experiment [5] is NF-κB DNA binding activity. The following applies: HEK293; data not shown, personal communication; cited from earlier work.
Experiment [6] deals with T2, PARP1. Kind of experiment: PAR chain formation after γ-irradiation, HepG2 cells. The format is cell-based. Also on record: endogenous in cells. The note with it: HepG2, 15 min after irradiation. Here is the method:
as §2

The test system of another experiment is p65 S536 phosphorylation. Kind of experiment: p65 S536 phosphorylation after γ-IR or etoposide, SDS-PAGE/WB, U2OS cells. The format is cell-based, human. Here is the method: FIG. 3: (A) U2OS cells were pre-treated with increasing concentrations of MW01 in duplicates in a 384 well plate. Then, cells were treated with etoposide, fixed and subjected to IF of p65. Spatial measurement of p65 cytosolic and nuclear localisation was used for calculation of p65 translocation rates. (B) U2OS cells were pre-treated with DMSO, MW01 and irradiated with γ-IR. After 90 min cells were lysed and subjected to SDS-PAGE/WB and EMSA. (C) Cells were pre-treated with different concentrations of MW01 as indicated, treated with γ-IR (C) or etoposide (D) and subjected to WB or EMSA, respectively. LDH in (C) represents the loading control.
as §2, with “Cells were harvested after 15 and 90 min and subjected to SDS-PAGE/WB. Membranes were stained with the indicated antibodies. Error bars equal SEM.” left out
After transfer of proteins on PVDF membranes unspecific binding of antibodies was blocked by incubation of membranes in 5% skim milk powder in TBST buffer (or 3% BSA in TBST for phosphorylation-specific antibodies) for 1 h at RT. […] After three times of washing with TBST and once with PBS for 5 min, chemiluminescent photon emission was detected using a CCD camera system (Fusion Solo). […]

For experiment [7], the system named is NF-κB target genes NFKBIA, TNFAIP3, CXCL8. Kind of experiment: qRT-PCR of NF-κB target genes after irradiation, U2OS cells. The note with it: 90 min after irradiation. The format is cell-based, human. Here is the method: as §2
To quantitate specific mRNA (messenger RNA) species in samples RNA was isolated, RNA concentration was measured and mRNA was transcribed into cDNA. The amount of mRNA transcripts of certain genes within a sample was quantified by employing gene specific primers and using a C-1000 Thermal cycler (Biorad). The expression of genes of interest was normalised against two or three reference genes (HRPT1, RPL_13a and B2M) using the CFX manager software. The fold induction of mRNA was calculated over untreated sample levels by the ΔΔ-Ct method.
(In general: In qPCR the cycle at which signal appears reflects the starting amount.)

Experiment [8] relates to genotoxic stress-induced phosphorylation of p65 at S536. Kind of experiment: Structure-activity-relationship: p-p65 S536/p65 densitometry after etoposide, U2OS cells. The format is cell-based, human. The following applies: 10 μM, 2 h prior to etoposide, normalised to DMSO/etoposide. The method, then: FIG. 13: (A) U2OS cells were pre-treated with DMSO, MW01 or its derivatives MW01A1-MW01C5 at concentrations of 10 μM for 2 h prior to etoposide treatment. After incubation with etoposide cells were harvested, lysed and subjected to SDS-PAGE/WB. Phospho-[…] p65 signal intensities as well as p65 signal intensities were detected using a CCD camera and band intensities were used for densitometrical analyses. DMSO and etoposide treated control was set to 1. Four independent experiments were performed and statistical outliers were identified and eliminated using Grubb's test. […] (B) NFkB/293/GFP-luc cells were pre-treated with DMSO, MW01 or its derivatives MW01D01-MW01D18 at concentrations of 10 μM for 1.5 h prior to etoposide treatment. After incubation for 4.5 hours NF-κB-dependent luciferase expression was measured by detection of chemoluminescence. DMSO and etoposide treated control was set to 1. Twelve independent experiments were performed.
Different derivatives of MW01 were obtained (FIG. 12 A) and tested for their ability to inhibit genotoxic stress-induced phosphorylation of p65 at S536. Densitometry of western blot bands was used to quantify signal intensities of the p65 S536 phosphorylation and total p65 amount. The signal intensities of the p65 S536 phosphorylation were normalised to the signal intensities of total p65 and the quotients were normalised to DMSO/etoposide and compared with MW01/etoposide co-treated samples (FIG. 13). […] Compared to MW01, these compounds are derivatives in which the hydroxyl group was exchanged with a small substitute either fluoride, chloride or a methyl group, respectively. Furthermore, MW01C3 and MW01C4 differed in the substitution of the aromatic ring system V (FIG. 12 B) regarding the two methoxy groups that are missing.

For a further experiment, the target named is T3, ATM (Homo sapiens, UniProt Q13315).
T3 construct: endogenous in cells; host or cells: HepG2
T3 sequence (Q13315 whole entry): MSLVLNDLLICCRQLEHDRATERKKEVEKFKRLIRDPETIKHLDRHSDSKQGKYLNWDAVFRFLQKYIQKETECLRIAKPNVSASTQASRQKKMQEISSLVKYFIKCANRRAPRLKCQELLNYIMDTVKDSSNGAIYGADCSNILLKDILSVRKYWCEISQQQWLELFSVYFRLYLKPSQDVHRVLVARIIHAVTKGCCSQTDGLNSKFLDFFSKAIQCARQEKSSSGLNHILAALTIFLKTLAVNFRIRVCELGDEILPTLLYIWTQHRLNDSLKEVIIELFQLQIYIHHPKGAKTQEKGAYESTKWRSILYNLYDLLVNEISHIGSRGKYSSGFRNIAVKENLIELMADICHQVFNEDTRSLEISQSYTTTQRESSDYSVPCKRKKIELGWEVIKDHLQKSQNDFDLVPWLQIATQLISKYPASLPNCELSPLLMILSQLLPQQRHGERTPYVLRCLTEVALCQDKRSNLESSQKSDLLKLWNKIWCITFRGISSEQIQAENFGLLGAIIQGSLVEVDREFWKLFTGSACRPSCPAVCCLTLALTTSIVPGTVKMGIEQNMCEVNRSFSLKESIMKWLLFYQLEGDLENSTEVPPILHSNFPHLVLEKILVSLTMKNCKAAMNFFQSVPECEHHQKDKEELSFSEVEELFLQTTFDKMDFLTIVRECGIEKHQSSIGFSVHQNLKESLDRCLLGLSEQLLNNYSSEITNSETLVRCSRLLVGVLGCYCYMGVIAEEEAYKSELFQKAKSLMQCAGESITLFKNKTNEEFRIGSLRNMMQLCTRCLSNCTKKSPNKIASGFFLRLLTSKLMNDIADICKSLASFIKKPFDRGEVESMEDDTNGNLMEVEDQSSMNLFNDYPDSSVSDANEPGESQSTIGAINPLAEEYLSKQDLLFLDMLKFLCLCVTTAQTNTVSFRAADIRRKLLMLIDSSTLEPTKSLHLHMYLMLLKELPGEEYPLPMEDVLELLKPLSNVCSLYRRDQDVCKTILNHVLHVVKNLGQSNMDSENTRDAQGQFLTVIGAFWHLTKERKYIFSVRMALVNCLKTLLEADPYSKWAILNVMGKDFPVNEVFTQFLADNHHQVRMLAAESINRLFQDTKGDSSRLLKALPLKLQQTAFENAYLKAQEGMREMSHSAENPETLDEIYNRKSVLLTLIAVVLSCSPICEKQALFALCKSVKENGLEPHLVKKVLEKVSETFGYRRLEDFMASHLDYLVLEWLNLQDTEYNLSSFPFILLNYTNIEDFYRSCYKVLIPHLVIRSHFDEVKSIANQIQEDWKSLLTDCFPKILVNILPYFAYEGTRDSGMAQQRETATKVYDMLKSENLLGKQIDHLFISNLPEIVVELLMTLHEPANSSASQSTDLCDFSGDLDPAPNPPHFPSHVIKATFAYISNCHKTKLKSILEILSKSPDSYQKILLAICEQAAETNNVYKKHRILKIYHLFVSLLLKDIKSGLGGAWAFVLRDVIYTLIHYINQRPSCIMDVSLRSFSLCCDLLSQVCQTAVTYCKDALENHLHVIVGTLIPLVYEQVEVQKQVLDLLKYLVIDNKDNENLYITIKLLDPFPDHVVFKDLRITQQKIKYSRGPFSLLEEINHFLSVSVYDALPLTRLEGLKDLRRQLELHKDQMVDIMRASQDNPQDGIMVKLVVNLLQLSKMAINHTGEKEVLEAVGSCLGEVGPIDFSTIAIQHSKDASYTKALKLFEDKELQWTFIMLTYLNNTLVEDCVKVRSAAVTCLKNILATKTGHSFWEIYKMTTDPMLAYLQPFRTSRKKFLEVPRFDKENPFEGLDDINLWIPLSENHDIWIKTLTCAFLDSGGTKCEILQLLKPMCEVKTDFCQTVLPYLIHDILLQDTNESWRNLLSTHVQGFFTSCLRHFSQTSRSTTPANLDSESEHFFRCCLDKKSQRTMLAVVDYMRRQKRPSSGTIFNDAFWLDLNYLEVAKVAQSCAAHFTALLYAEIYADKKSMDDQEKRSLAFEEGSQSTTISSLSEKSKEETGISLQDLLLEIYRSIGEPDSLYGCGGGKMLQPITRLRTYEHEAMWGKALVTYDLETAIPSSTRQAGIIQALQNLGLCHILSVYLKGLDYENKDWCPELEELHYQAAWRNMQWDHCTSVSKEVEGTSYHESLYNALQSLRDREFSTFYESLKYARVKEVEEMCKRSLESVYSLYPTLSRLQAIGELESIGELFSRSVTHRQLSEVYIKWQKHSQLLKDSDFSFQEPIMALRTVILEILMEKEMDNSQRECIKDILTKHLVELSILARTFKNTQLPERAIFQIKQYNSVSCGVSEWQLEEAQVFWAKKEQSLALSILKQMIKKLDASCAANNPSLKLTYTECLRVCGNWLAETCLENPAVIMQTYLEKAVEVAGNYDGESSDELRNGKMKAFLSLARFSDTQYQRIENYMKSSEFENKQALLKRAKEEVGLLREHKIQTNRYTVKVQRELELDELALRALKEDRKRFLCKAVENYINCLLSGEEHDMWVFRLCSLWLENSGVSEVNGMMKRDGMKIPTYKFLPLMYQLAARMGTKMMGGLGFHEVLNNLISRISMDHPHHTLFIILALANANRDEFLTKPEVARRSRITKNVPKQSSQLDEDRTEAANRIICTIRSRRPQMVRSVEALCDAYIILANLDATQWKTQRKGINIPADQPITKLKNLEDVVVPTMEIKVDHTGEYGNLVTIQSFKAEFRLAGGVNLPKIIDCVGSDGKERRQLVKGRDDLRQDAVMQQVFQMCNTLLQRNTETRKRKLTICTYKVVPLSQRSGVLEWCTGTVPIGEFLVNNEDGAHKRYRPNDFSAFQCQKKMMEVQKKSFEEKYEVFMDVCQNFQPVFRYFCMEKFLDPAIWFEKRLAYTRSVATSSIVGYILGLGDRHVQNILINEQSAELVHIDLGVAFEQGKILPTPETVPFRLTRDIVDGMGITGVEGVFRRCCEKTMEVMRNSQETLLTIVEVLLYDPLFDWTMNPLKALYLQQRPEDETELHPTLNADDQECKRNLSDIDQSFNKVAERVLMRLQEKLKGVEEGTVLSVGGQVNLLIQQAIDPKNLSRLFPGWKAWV
Kind of experiment: Enzymatic activity of ATM in γ-irradiated HepG2 cells, WB of ATM and substrate phosphorylation. The note with it: HepG2, γ-irradiation, 60 min; MW01 5 μM, Ku55933 10 μM. The format is cell-based. Here is the method: as §1

T2 sequence (P09874 whole entry): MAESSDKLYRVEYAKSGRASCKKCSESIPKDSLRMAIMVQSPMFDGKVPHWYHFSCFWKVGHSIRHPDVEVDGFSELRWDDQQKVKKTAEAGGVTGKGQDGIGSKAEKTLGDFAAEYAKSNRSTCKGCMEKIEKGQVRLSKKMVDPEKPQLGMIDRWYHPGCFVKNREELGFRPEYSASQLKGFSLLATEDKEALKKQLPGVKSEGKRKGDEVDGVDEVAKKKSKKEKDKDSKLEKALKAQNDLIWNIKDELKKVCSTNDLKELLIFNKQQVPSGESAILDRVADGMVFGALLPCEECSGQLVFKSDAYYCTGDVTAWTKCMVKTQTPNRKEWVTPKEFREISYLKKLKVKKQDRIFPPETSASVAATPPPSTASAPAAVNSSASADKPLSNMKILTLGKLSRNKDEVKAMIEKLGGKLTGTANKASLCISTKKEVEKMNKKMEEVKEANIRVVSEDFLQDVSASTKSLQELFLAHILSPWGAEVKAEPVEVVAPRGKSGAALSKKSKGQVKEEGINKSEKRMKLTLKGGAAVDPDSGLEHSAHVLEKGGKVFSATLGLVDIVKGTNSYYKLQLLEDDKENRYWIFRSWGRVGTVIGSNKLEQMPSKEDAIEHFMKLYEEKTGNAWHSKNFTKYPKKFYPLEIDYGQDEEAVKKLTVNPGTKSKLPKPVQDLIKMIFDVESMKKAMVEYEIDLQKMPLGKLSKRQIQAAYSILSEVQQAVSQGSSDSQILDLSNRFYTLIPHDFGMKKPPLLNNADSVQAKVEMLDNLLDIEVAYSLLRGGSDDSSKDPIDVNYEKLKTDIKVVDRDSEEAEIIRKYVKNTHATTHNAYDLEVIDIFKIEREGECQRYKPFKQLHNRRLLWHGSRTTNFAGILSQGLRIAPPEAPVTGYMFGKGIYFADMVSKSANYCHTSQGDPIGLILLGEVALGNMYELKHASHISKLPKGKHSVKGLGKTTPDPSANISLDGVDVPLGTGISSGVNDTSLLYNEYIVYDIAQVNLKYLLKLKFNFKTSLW
T1 sequence (P11103 whole entry): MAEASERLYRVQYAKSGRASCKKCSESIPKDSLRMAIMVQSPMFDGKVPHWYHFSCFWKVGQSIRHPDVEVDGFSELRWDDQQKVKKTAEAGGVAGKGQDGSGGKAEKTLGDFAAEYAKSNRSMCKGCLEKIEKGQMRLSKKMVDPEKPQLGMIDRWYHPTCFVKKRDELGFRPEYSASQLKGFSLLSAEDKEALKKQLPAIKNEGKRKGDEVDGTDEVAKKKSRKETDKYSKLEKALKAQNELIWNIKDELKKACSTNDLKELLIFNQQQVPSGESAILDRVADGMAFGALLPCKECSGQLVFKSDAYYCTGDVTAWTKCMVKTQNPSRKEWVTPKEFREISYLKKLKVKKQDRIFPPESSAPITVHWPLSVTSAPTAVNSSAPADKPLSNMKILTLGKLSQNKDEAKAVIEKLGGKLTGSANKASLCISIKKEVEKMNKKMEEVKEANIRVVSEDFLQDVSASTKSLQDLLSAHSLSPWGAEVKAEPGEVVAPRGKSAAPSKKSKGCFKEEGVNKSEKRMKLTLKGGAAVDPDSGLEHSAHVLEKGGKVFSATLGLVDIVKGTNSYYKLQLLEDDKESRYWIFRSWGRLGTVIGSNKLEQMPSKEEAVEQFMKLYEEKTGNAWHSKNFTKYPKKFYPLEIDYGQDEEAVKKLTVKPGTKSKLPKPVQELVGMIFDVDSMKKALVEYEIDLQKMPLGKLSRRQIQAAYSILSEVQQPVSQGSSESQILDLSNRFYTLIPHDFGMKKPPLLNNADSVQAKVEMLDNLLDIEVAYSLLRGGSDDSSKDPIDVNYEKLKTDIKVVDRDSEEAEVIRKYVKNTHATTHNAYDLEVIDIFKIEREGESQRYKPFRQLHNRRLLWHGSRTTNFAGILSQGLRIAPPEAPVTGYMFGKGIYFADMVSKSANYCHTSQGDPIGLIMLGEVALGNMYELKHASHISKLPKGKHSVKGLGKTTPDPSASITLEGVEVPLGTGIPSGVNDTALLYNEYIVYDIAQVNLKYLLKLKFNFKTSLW

As to `NC(=O)c1cccc(N)c1` [Example 3-AB], the “PAR chain formation / PARP1 enzymatic activity” value at PARP1 [1] is “inhibition of PAR chain formation”. Besides, in experiment [2], the “phosphorylation of p65 at S536” value was “decreased phosphorylation”. In addition, on PARP1 [3], the “PAR chain formation and NF-κB DNA binding activity” value is “inhibited PAR chain formation and NF-κB DNA binding activity”. Also, the “PAR chain formation and NF-κB binding activity” value on PARP1 [4] is “abrogated PAR chain formation and NF-κB binding activity”. In addition, in [5], the “NF-κB DNA binding activity” value was “did not abolish”. Further, the PAR chain formation result on PARP1 [6] is given as “abolished”.
Consider `O=C(c1cc(Cc2n[nH]c(=O)c3ccccc23)ccc1F)N1CCN(C(=O)C2CC2)CC1` [olaparib], for which the “p65 S536 phosphorylation in comparison to DMSO/etoposide co-treated controls” value in the experiment with p65 S536 phosphorylation (0.63 μM to 10.0 μM, 90 min after etoposide) was “No significant decrease”. The “signal intensity ratio of S536 phosphorylated p65 and total p65 (densitometry, three experiments)” value in the experiment with p65 S536 phosphorylation (etoposide co-treatment) is reported as “did not influence”. In addition, the “phosphorylation of p65 at S536” value in experiment [2] was “decreased phosphorylation”. For the same molecule, the “NFKBIA, TNFAIP3 and CXCL8 mRNA induction upon irradiation” value in experiment [7] is on record as “did not change”.
In the case of `Cc1ccc2c(c1)c1ccnc3c4ccccc4c(=O)n2c13` [MW01C3, 12-methyl-8H-benzo[c]indolo[3,2,1-ij][1,5]naphthyridin-8-one], the “p-p65/p65 ratio (inhibition of NF-κB activation following etoposide co-treatment)” value in [8] is listed as “lowest p-p65/p65 ratios”.
As for `Nc1ncnc2c1ncn2[C@@H]1O[C@H](C(=O)N2CCN(CC(=O)Nc3cccc4c3CNC4=O)CC2)[C@@H](O)[C@H]1O` [EB-47], the “PAR chain formation / PARP1 enzymatic activity” value on PARP1 [1] is listed as “inhibition of PAR chain formation”. For the same molecule, the “phosphorylation of p65 at S536” value in experiment [2] is on record as “detected”. Also, the “PAR chain formation and NF-κB binding activity” value at PARP1 [4] is “abrogated PAR chain formation and NF-κB binding activity”. Also, the PAR chain formation result on PARP1 [6] is on record as “abolished”.
With `O=c1c2ccccc2c2nccc3c4cc(Cl)ccc4n1c32` [MW01C4, 12-chloro-8H-benzo[c]indolo[3,2,1-ij][1,5]naphthyridin-8-one], in experiment [8], the “p-p65/p65 ratio (inhibition of NF-κB activation following etoposide co-treatment)” value is on record as “lowest p-p65/p65 ratios”.
Still for that read-out and setting: the value for `COc1ccc2c3ccnc4c5ccc(OC)c(OC)c5c(=O)n(c2c1)c34` [MW01C1, 6,7,11-trimethoxy-8H-benzo[c]indolo[3,2,1-ij][1,5]naphthyridin-8-one] was “highly potent derivative”.
Turning to `O=c1cc(-c2cccc3c2Sc2ccccc2S3)oc(N2CCOCC2)c1` [KU55933, reference compound], on ATM, the “ATM auto-phosphorylation and phosphorylation of the ATM substrates p53 and KAP1” value is listed as “inhibited”; the “phosphorylation state of p53bp1” value is “inhibited”. Besides, the “NFKBIA, TNFAIP3 and CXCL8 mRNA induction upon irradiation” value in experiment [7] is given as “complete inhibition”.
Regarding `COc1ccc2c(c1OC)c(=O)n1c3ccc(F)cc3c3ccnc2c31` [MW01C2, 12-fluoro-6,7-dimethoxy-8H-benzo[c]indolo[3,2,1-ij][1,5]naphthyridin-8-one], the “p-p65/p65 ratio (inhibition of NF-κB activation following etoposide co-treatment)” value in experiment [8] is listed as “lowest p-p65/p65 ratios”.
